We go through 5 molecules from ChEMBL document CHEMBL1201862, “PubChem BioAssay data set” (2004).

SMILES strings stand for the structures.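 1) Cells in 96-well plates. 2) Compound, 48 h, 5 concentrations. 3) Linear interpolation between surrounding doses. 4) Unreached endpoint = highest concentration. GI50 is the concentration that inhibits growth by half.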 Activity calls are given as the source filed them. No stated cut-off is given here; in the data, active = GI50 up to about 1.1 µM and inactive = higher. Where only a bound is given, the exact number is not on record here.

Among the test systems are A549; ACHN; BT-549; HCT-116; HT-29; K562; LOX IMVI; MDA-MB-435; Malme-3M; NCI-H226; NCI-H23; OVCAR-3; SF-268; SK-MEL-2; SK-MEL-5; SN12C; SW-620; UACC-62; UO-31; HCT-15.
Common to all, as to test: NCI tumour cell line growth inhibition, 48 h

For `CC(O)=C1C(=O)CCC1=O`, the GI50 with A549, in the test on ACHN, in the test with BT-549, in the test on HCT-116, in the test on HT-29 and in the test on K562 was > 100 µM (inactive) each time. Moreover, the GI50 with LOX IMVI, in the test on MDA-MB-435, in the test on Malme-3M, with NCI-H226, with NCI-H23 and with OVCAR-3 was > 100 µM (inactive) throughout. In addition, the GI50 in the test with SF-268, with SK-MEL-2, in the test on SK-MEL-5, in the test on SN12C, in the test on SW-620 and in the test on UACC-62 was > 100 µM (inactive) each time. Besides, in the test on UO-31, the GI50 is > 100 µM (inactive).
For `O=C1N(Cc2ccccc2)C2CSCC2N1Cc1ccccc1` (stereo not drawn), the GI50 with A549 was 40 µM (inactive); in the test with ACHN, 49.2 µM (inactive); in the test with BT-549, 17.1 µM (inactive); with HCT-116, 36.4 µM (inactive); in the test with HT-29, 16.7 µM (inactive); in the test on K562 it was 55.5 µM (inactive). Moreover, the GI50 in the test on LOX IMVI was 30.2 µM (inactive); in the test with MDA-MB-435, 20.2 µM (inactive); in the test on Malme-3M, 13.5 µM (inactive); in the test on NCI-H226, 24.1 µM (inactive); in the test with NCI-H23, 27.8 µM (inactive); in the test on OVCAR-3, 10.4 µM (inactive). Besides, the GI50 is 31.1 µM (inactive) in the test on SF-268; 16.7 µM (inactive) in the test with SK-MEL-2; 15.4 µM (inactive) in the test with SK-MEL-5; 33.7 µM (inactive) in the test with SN12C; 36.2 µM (inactive) in the test on SW-620; 27.4 µM (inactive) in the test on UACC-62. Besides, the GI50 in the test on UO-31 is 24 µM (inactive).
Take `Cc1cc(C)n(-c2nsc3ccccc23)n1`: the GI50 in the test on A549 was > 100 µM (inactive); in the test on ACHN, > 100 µM (inactive); in the test with HCT-116, > 100 µM (inactive); in the test on HCT-15, greater than 100 µM; in the test with HT-29 it was > 100 µM (inactive); in the test with K562, 89.1 µM (inactive). Also, the GI50 in the test with LOX IMVI, with NCI-H23, in the test with OVCAR-3, in the test on SF-268, in the test with SK-MEL-2 and in the test with SK-MEL-5 was > 100 µM (inactive) throughout. For the same molecule, the GI50 in the test with SN12C, in the test with SW-620, with UACC-62 and in the test with UO-31 was > 100 µM (inactive) throughout.
Regarding `O=C(NC(=O)c1cn(CCN2CCNCC2)c(=O)[nH]c1=O)OCc1ccccc1`, the GI50 was > 100 µM (inactive) in the test with A549; > 100 µM (inactive) in the test on ACHN; > 100 µM (inactive) in the test on HCT-116; greater than 100 µM in the test with HCT-15; > 100 µM (inactive) with HT-29; > 100 µM (inactive) in the test on K562. The GI50 with LOX IMVI, in the test on Malme-3M, in the test on NCI-H226, in the test on NCI-H23, in the test on OVCAR-3 and with SF-268 was > 100 µM (inactive) throughout. The GI50 in the test on SK-MEL-5, with SN12C, with SW-620 and with UACC-62 was > 100 µM (inactive) each time.
For the molecule `CCOC(=O)C(NC(=O)CC)(Nc1ccccc1F)C(F)(F)F` (stereo not drawn), the GI50 was > 100 µM (inactive) in the test on A549; 48.9 µM (inactive) with ACHN; > 100 µM (inactive) with BT-549; > 100 µM (inactive) in the test on HCT-116; greater than 100 µM with HCT-15; > 100 µM (inactive) with HT-29. In addition, the GI50 was 86.9 µM (inactive) in the test on K562; > 100 µM (inactive) with LOX IMVI; > 100 µM (inactive) in the test with MDA-MB-435; > 100 µM (inactive) in the test with NCI-H23; > 100 µM (inactive) in the test on OVCAR-3; > 100 µM (inactive) with SF-268. Moreover, the GI50 with SK-MEL-2 is > 100 µM (inactive); with SK-MEL-5, 68.2 µM (inactive); with SN12C, > 100 µM (inactive); in the test with SW-620, > 100 µM (inactive); with UACC-62 it was 42.2 µM (inactive); in the test with UO-31 it was > 100 µM (inactive).
